Results taken from patent US6849442B1, “Biosensor materials and methods” (Cambridge University Technical Services Limited, priority 1997, dated 2005).

How the values were obtained:
R. corallina cells = conditions: for induction of catechol 2,3-dioxygenase activity: R. corallina, meta pathway marker; for ring cleavage dioxygenase pathway induced (meta / ortho): crude enzyme extracts of cells grown on MMRN supplemented with the xenobiotic
Description: (§1) “MMRN” is prepared as a multicomponent stock to avoid the production of uncharacterised compounds during autoclaving. A “basic salts” stock is prepared containing 6 g/L Na2HPO4; 3 g/L KH2PO4; 1 g/L NaCl; 4 g/L (NH4)2SO4; adjusted to pH 7.4 and made up to 989 mls with distilled water and autoclaved. A “100×A salts” solution is prepared consisting of 20 g/L MgSO4; 2000 mg/L FeSO4.7H2O; 200 mg/L FeCl3; 200 mg/L MnSO4.H2O is prepared in distilled water and autoclaved. A “1000×B salts” solution consisting of 500 mg/L ZnSO4.7H2O; 200 mg/L CuCl2·2H2O; 200 mg/L Na2B4O7.10H2O; 100 mg/L (NH4)7Mo6O24.4H2O is prepared in distilled water and autoclaved. To prepare 1 litre of MMRN, sterile solutions of 989 mls basic salts, 10 mls 100×A salts, 1 ml 1000×B salts are combined. For solid media, agar is added to 1.4% w/v. Carbon-energy sources are supplemented to 80 μM final concentrations for soluble molecules, or as vapour for insoluble molecules (where their concentration is decided by their individual partition coefficients generally ranging from 3 to 40 μM). Petri plates or liquid cultures are incubated at 28° C. to 30° C. for up to 72 hours to accumulate sufficient biomass for genetic and biochemical testing.

R. corallina [1] = experiment: Genetic induction of the toluene degradative pathway, substrate supplied as vapour; format: cell-based, Rhodococcus corallina; conditions: level in water
Description: as §1

R. corallina [2] = experiment: Growth-inducing substrate test on MMRN; format: cell-based, Rhodococcus corallina
Text: Mycolic acid-containing bacteria may then be screened for specific hydrocarbon-inducible catabolic pathways using MMRN supplemented with the target xenobiotic pollutant. Strains for which the target molecule is growth inducing may then be isolated and used to as a source of genetic regulatory elements for biosensors or as specific biocatalytic functions. Using this protocol mycolic acid containing bacteria have been and may be rapidly identified with novel and useful catabolic properties. This approach is also useful for identification and isolation of mycolic acid containing bacteria with biocatalytic properties.

Row | Molecule | induction of catechol 2,3-dioxygenase activity (R. corallina cells) | ring cleavage dioxygenase pathway induced (meta / ortho) (R. corallina cells) | level at which genetic induction of the toluene degradative pathway occurs (R. corallina [1]) | acts as growth inducing substrate (R. corallina [2])
1 | O=C(O)c1ccccc1 [benzoate] | not | exclusively induces the ortho pathway |  | 
2 | Oc1ccccc1 [phenol] |  | exclusively induces the ortho pathway |  | 
3 | Cc1ccccc1 [toluene] | induced | induced the meta pathway | less than 200 ppm | 
4 | xylene |  |  |  | does not act as a growth inducing substrate
